Reference: US20250154143A1, “PRODRUGS FOR USE IN THE TREATMENT OF TISSUE DAMAGE” (UCL BUSINESS LTD, priority 2021, published 2025)
Converted amounts (≈) assume the structure as drawn. Structures can show the parent of a compound that is named as a salt.

How the values were obtained:
[1] = target: T1, human CRP (Homo sapiens, UniProt P02741); settings: rat acute myocardial infarction model, rats receiving human CRP; cited from earlier work
T1 construct: The final concentrations were 0.73 μM native pentameric CRP; from tissue
T1 sequence (P02741 19-224): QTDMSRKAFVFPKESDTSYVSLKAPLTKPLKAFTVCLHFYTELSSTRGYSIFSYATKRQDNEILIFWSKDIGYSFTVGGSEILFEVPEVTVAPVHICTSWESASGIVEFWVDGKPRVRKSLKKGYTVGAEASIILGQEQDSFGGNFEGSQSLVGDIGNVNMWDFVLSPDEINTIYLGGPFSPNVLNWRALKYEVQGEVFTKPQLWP

[2] = Thermodynamic solubility in PBS, FaSSIF and SGF; assay type: physicochemical; settings: thermodynamic from solid, room temperature
Experimental: A known quantity of the Examples and control compounds were weighed into a suitable vessel (whatman miniuniprep vials) and a known volume of the required media was added (e.g. Simulated Gastric Fluid pH 1.2 [SGF], Simulated Fasted State Intestinal Fluid pH 6.5 [FaSSIF] or Phosphate Buffered Saline pH 7.4 [PBS]). The samples were subjected to vortex mixing for 2 minutes followed by agitation on a shaker for 24 hours at room temperature at 800 rpm. The samples were then centrifuged for 20 minutes at 4000 rpm, the miniuniprep vials compressed and the filtrates analysed by HPLC (Waters Xbridge C18 4.6×100 mm, mobile phase A: 0.1% TFA in water, mobile phase B: 0.1% TFA in acetonitrile).

[3] = Stability in FaSSIF, SGF and PBS; assay type: physicochemical; settings: 37° C.
Experimental: 10 μL of a 10 mM stock solution of the Examples were dissolved in 490 μL DMSO to afford […] working solution
Dissolve 0.04 g NaCl and 0.064 g pepsin in 0.14 mL HCl and add sufficient water to 20 mL volume. The pH of the test solution was 1.20±0.05.
0.056% (w/v) lecithin, 0.161% (w/v) sodium taurocholate, 0.39% (w/v) monobasic potassium phosphate, 0.77% (w/v) potassium chloride, deionized H2O. The pH of the test solution was 6.5±0.05.
30 mL of 10×PBS (pH7.4) was added into a 50 mL flask and diluted with water. The solution was mixed well and adjusted to pH 7.4 with 1N HCl.
Protocol for Determining Stability 2 μL of the 200 μL working solution of the Examples was added into 96-deep-well plates for T0, T60, T120, T360 and T1440 timepoints. Duplicates were prepared.
Stability studies were commenced by the addition of 198 μL of the required media (e.g. Simulated Gastric Fluid pH 1.2 [SGF], Simulated Fasted State Intestinal Fluid pH 6.5 [FaSSIF]) and Phosphate Buffered Saline pH 7.4 [PBS]) to each well except T0. The samples were incubated at 37° C. at 600 rpm for the appointed time. The samples at the corresponding timepoint were removed and immediately mixed with 400 μL of 0.3% FA in MeCN containing 200 ng/mL tolbutamide and labetalol (internal standard). 200 μL of suspension was removed and mixed with 400 μL of 0.3% FA in cold MeCN containing 200 ng/mL tolbutamide and labetalol. The samples were centrifuged at 4000 rpm at 4° C. for 20 minutes. 60 μL of the supernatant was removed and mixed with 180 μL purified water and thoroughly mixed and analysed by LCMS (Shimadzu LC 30-AD, ACQUITY UPLC HSS T3 1.8 um 2.1*50 mm Part No. 186003538, with mobile phase A: 0.1% formic acid in water, mobile phase B: 0.1% formic acid in MeCN. Formation of parent was also monitored as a metabolite.
Samples were analysed by Mass Spectrometry QTRAP 6500+

[4] = Phosphate Buffered Saline (PBS), aqueous buffer, PBS pH 7.4, 24 hour timepoint
[5] = Simulated Fasted State Intestinal Fluid (FaSSIF), FaSSIF pH 6.5, 24 hour timepoint
[6] = Simulated Gastric Fluid (SGF), simulated gastric fluid, SGF pH 1.2, 24 hour timepoint

Row | Compound | Effect on adverse effects of human CRP [1] | solubility thermodynamic at 24 h [2, 4] [µg/mL] | solubility thermodynamic at 24 h [2, 5] [µg/mL] | solubility thermodynamic at 24 h [2, 6] [µg/mL] | FaSSIF (pH 6.5) % remaining ([3]; FaSSIF pH 6.5, 6 hr) [%] | FaSSIF (pH 6.5) % remaining ([3]; FaSSIF pH 6.5, 24 h) [%] | PBS (pH 7.4) % remaining ([3]; PBS pH 7.4, 6 h) [%] | PBS (pH 7.4) % remaining ([3]; PBS pH 7.4, 24 h) [%] | SGF (pH 1.2) % remaining ([3]; SGF pH 1.2, 6 h) [%] | SGF (pH 1.2) % remaining ([3]; SGF pH 1.2, 24 h) [%]
1 | C[N+](C)(C)CCOP(=O)([O-])OCCCCCCOP(=O)([O-])OCC[N+](C)(C)C [BPC6, bis(phosphocholine)hexane] | completely abrogate the adverse effects of human CRP |  |  |  |  |  |  |  |  | 
2 | O=C(N[C@@H](C(=O)O)C1CN2CCC1CC2)c1ccc(C(=O)N[C@@H](C(=O)O)C2CN3CCC2CC3)cc1 (stereo partly drawn) [APL-2191.2HCl, (R,2R,2′R)-2,2′-(terephthaloylbis(azanediyl))bis(2-((R)-quinuclidin-3-yl)acetic acid) bis hydrochloride salt] |  | 1690 | 2510 | 4560 |  |  |  |  |  | 
3 | C[N+](C)(C)CCOP(=O)(O)OCCCCCCCCOP(=O)(O)OCC[N+](C)(C)C [BPC8, bis(phosphocholine)octane] | completely abrogate the adverse effects of human CRP |  |  |  |  |  |  |  |  | 
4 | CCOC(=O)[C@H](NC(=O)c1ccc(C(=O)N[C@@H](C(=O)OCC)C2CN3CCC2CC3)cc1)C1CN2CCC1CC2 (stereo partly drawn) [Example 12, (R,2R,2′R)-2,2′-(terephthaloylbis(azanediyl))bis(2-((R)-quinuclidin-3-yl)acetic acid) bis ethyl ester] |  | 5520 (≈ 9.94 mM) | 4540 (≈ 8.18 mM) | 4000 (≈ 7.22 mM) | 105.0 | 95.2 | 84.33 | 87.14 | 101.2 | 92.3
5 | CC(C)OC(=O)[C@H](NC(=O)c1ccc(C(=O)N[C@@H](C(=O)OC(C)C)C2CN3CCC2CC3)cc1)C1CN2CCC1CC2 (stereo partly drawn) [Example 13, (R,2R,2′R)-2,2′-(terephthaloylbis(azanediyl))bis(2-((R)-quinuclidin-3-yl)acetic acid) bis isopropyl ester] |  | 4560 (≈ 7.83 mM) | 5200 (≈ 8.93 mM) | 5140 (≈ 8.82 mM) | 99.7 | 110.4 | 103.43 | 104.61 | 107.2 | 100.0
6 | COC(=O)[C@H](NC(=O)c1ccc(C(=O)N[C@@H](C(=O)OC)C2CN3CCC2CC3)cc1)C1CN2CCC1CC2 (stereo partly drawn) [Example 1, (R,2R,2′R)-2,2′-(terephthaloylbis(azanediyl))bis(2-((R)-quinuclidin-3-yl)acetic acid) bis methyl ester] |  | 1220 (≈ 2.31 mM) | 4690 (≈ 8.9 mM) | 5930 (≈ 11.3 mM) | 98.3 | 113.3 | 84.07 | 55.89 | 101.2 | 92.6
